Assay results from patent US20030060487A1, “Treatment of neurodegenerative disease” (priority 2000, published 2003).

How the values were obtained:
[1] = biological target: T1, β-amyloid peptide (his-Aβ 1-40) with Aβ 1-42 fibrils (Homo sapiens, UniProt P05067); test: Colloid drug screen for aggregate inhibition at high peptide concentration, with pre-formed Aβ 1-42 fibrils; format: biochemical; conditions: 20 uM his-Aβ 1-40 + 1 uM Aβ 1-42 fibrils; 5 ul drug (2.9 mg/ml in DMSO) in 100 ul; 37° C. 4-6 hours; microscope 40×
T1 construct: 10 ul of a 200 uM solution of his-Aβ 1-40 peptide in phosphate buffer; 3.3 ul of 30 uM Aβ 1-42 fibrils (non-histidine-tagged) was added to each well
From the text: (§1) Compositions were identified that inhibit aggregation characteristic of neurodegenerative disease at high B-amyloid peptide concentration, low peptide concentration, and in some cases both. Compositions that inhibited aggregation at high concentration inhibited formation where an assay included B-amyloid peptide and at least some amount of pre-formed aggregate characteristic of neurodegenerative disease. Compositions that inhibited aggregation at low concentration inhibited […] in the presence of β-amyloid peptide but in the absence of any pre-formed aggregate characteristic of neurodegenerative disease.
In another drug screening method, drugs were incubated with Aβ 1-42 fibrils, which will convert normal Aβ 1-40 peptides to the fibrillar form at a faster rate than Aβ 1-40 fibrils. Histidine-tagged Aβ 1-40 peptides were then added to the wells, along with colloids derivatized with self-assembled monolayers containing NTA-Ni for the attachment of histidine-tagged Aβ 1-40. It was previously shown that Aβ 1-42 fibrils will cause accelerated conversion of Aβ 1-40, which will then incorporate into large aggregates structures. These aggregates are colored red by the colloids attached to the peptides, and are easily visible under the microscope.
5 ul of each drug in DMSO was added to the wells of a 96-well ELISA plate, which contained 52 ul of phosphate buffer. […]

[2] = biological target: T2, β-amyloid peptide (his-Aβ 1-40) (Homo sapiens, UniProt P05067); test: Colloid colorimetric drug screen for fibril inhibition at low peptide concentration, no pre-formed aggregate; format: biochemical; conditions: 5 uM his-Aβ 1-40, no pre-formed aggregate; 5 ul drug (2.9 mg/ml in DMSO); 37C 1.5-2 hours; well stays pink vs blue
T2 construct: 10 ul of a 50 uM solution of his-Aβ 1-40 peptide in phosphate buffer
From the text: as §1
In one drug screening method, histidine-tagged AB 1-40 peptides were immobilized on colloids derivatized with self-assembled monolayers containing NTA-Ni for the attachment of histidine-tagged peptides. It has been previously shown that the Aβ peptides, if not inhibited by a drug, will spontaneously convert to the fibrillar form and aggregate, pulling the colloids close together, and causing a color change from pink to blue.
Drugs from the Sigma-RBI Library of Pharmacologically Active Compounds (LOPAC; #SC001, 1999) were dissolved in dimethyl sulphoxide (DMSO) to a final concentration of 2.9 mg/ml. […]

[3] = system: Amyloid Precursor Protein (APP) in HEK cells; test: Colorimetric whole cell screening assay for drugs that effect APP production, secretion, or cleavage; format: cell-based, Human; conditions: HEK cells expressing APP; 1.25 ul of 2.9 mg/mL drug in DMSO per well, approx. 18 hours; then 5 uM His-AB colloids 8-12 hours
Procedure: Human Embryonic Kidney (HEK) cells expressing the Amyloid Precursor Protein (APP) were split into the wells of a 96-well cell-culture plate and were allowed to adhere and spread. […] Positive control cells were given DMSO in place of a drug. […] Cells were allowed to grow overnight for approximately 18 hours at 37C. After 18 hours, 1.925 mL of a 30 uM solution of His-tagged AB(1-40) in phosphate buffer was mixed with 2.880 mL 40 uM NTA colloids for a resulting concentration of 12 uM His-AB. 50 ul of the AB colloid solution was added to each well of the cell-culture plate, which contained 70 ul cell culture media per well. […] The plates were incubated at 37C for 8-12 hours, or until a color change from pink to blue occurred in the positive controls.
Once the positive controls changed color from pink to blue, the wells containing drug candidates were visually examined for a color change. […] Cell death due to drug toxicity would obviously effect APP production, and may cause a well to remain pink. For this reason, all wells containing drug candidates were examined under the microscope for cell viability.

T1 sequence (P05067 672-713): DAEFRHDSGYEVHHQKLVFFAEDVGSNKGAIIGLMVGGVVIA
T1 sequence (P05067 672-711): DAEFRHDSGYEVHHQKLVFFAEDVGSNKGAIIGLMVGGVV
T2 sequence (P05067 672-711): as above

COc1cc(Cc2cnc(N)nc2N)cc(OC)c1OC [trimethoprim]
do not provide a positive result: inhibition of aggregate formation at high peptide concentration [1] | inhibition of aggregate formation at low peptide concentration [2] | effect on APP production, secretion, or cleavage (lack of color change pink to blue) [3]
